Laboratory results reported in PMC9704087, “Solid lipid nanoparticle as an effective drug delivery system of a novel curcumin derivative: formulation, release in vitro and pharmacokinetics in vivo” (Pharmaceutical Biology, 2022).

How the values were obtained:
[1] = Pharmacokinetic study after intravenous injection; format: in vivo; conditions: male, Sprague Dawley, rat, SD rats, 5 mg/kg intravenous, plasma, n = 5
Protocol: Sprague Dawley (SD) male rats aged 8 weeks weighing 250–300 g were provided by the Laboratory Animal Center of Southwest Medical University and were placed in a pathogen-free environment, and had free access to food and water. Studies involving animals were approved (approval number: SCXK (Chuan) 2013-17) by the Ethics Committee of Southwest Medical University.
Rats that were used for the pharmacokinetic study were fasted for more than 12 h before use and had free access to water. Rats were randomly divided into two groups (n = 5), namely, the Cur group and CUD-SLN group, Rats in both groups were injected intravenously with 5 mg/kg of corresponding drugs. Approximately, 200 µL of blood was collected using a heparin-coated syringe at 2, 5, 15 and 30 min and at 1, 2, 4, 6, 8, 12, 24, 30, 36, 48, 54, 60, 72 and 84 h after injection. Blood was centrifuged for 10 min at 3000 rpm, and plasma was obtained. Furthermore, 50 µL of acetate buffer (pH 3.5) was added to 100 μL of plasma. After vortexing for 1 min, 0.5 mL of extract solvent (methanol–ethyl acetate 10:90, v/v) was added to the mixture, the mixture was vortexed again for 3 min, followed by centrifugation for 3 min at 8000 rpm. Then, 0.5 mL of supernatant was removed and evaporated with nitrogen flow. Next, 200 μL of reconstituted solvent (acetonitrile contains 0.1% phosphoric acid) was added to the dry residue, vortexed for 4 min, sonicated for 4 min, and centrifuged for 10 min at 10,000 rpm, A total of 50 μL of the supernatant was removed for the high-performance liquid chromatography (HPLC) (1260 Infinity II, Agilent Technologies, Santa Clara, CA) and calculated with the standard curve (Cur: A = 157.21 C + 0.148, R^2=0.9991, range: (0.02, 12) μg/mL; CUD: A = 18.159 C + 0.4884, R^2=0.9998, range: (0.02, 5) μg/mL; A = 46.552 C – 179.81, R^2=0.9997, range: (5, 160) μg/mL). […] The detection wavelength was 409 nm (Guo et al. [2020]).
(§1) Evaluation of the comprehensive design experiment was performed by SPSS 17.0 software (SPSS Inc., Chicago, IL). Fitting of the release curve was performed by Origin 8.0 software. Pharmacokinetic data were processed by DAS 2.1.1 software to obtain relevant pharmacokinetic parameters. Student’s t-test for two groups and one-way ANOVA for multiple groups were employed for the data analysed. p < 0.05 was considered statistically significant.

[2] = In vitro drug release, dialysis membrane diffusion technique; format: physicochemical
Protocol: The release of CUD-SLN and free CUD in vitro was studied using a dialysis membrane diffusion technique (MWCO 8000–14,000) (He et al. [2020]). Due to the low solubility of CUD in the buffer, Tween 80 was added to satisfy the leaking conditions. A total of 500 mL of PBS buffer with 10% w/v Tween 80 (pH 7.35) was used as a release medium. Next, 2 mL of freshly prepared CUD-SLN (1 mg/mL) was transferred to the dialysis bags, and 2 mg free CUD (suspended in 2 mL 0.5% w/v CMC-Na) was transferred to dialysis bags as a control. The test bags were immersed in a release medium at 37 ± 0.5 °C and stirred at 100 rpm using a dissolution apparatus (ZRS-8G, Intelligent dissolution tester, ZRS-8G, Tianjin, China). An aliquot of the sample (1 mL) was removed from the release medium at 15 and 30 min and 1, 2, 4, 6, 8, 12, 24 and 48 h. After each sampling, the blank dissolution medium was replenished with the same temperature and volume. Removed samples were filtered through a 0.22 μm filter, the CUD content was analysed by a UV–vis spectrophotometer, and the analytical method described before. The in vitro release data of the drug were fitted with the zero-order release equation, the first-order release equation and the Higuchi equation (Ma et al. [2019]).
as §1

Row | Compound | AUC(0-inf) [1] [ng·h/mL] | AUC(0-t) [1] [ng·h/mL] | Cmax [1] [ng/mL] | Tmax [1] [h] | clearance ([1]; read-out: CLz (clearance) (converted)) [mL/min/kg] | MRT last ([1]; read-out: MRT0–t) [h] | MRT inf ([1]; read-out: MRT0–∞) [h] | half-life ([1]; read-out: t1/2z (half-life) (converted)) [h] | cumulative release of CUD at 48 h ([2]; PBS with 10% w/v Tween 80, pH 7.35, 37 °C, 100 rpm, n = 6) [%] | First-order equation k1 ([2]; fit of in vitro release data) | Higuchi's equation kh ([2]; fit of in vitro release data) | Zero order equation k0 ([2]; fit of in vitro release data)
1 | COc1cc(/C=C/C(=O)CC(=O)/C=C/c2ccc(O)c(OC)c2)ccc1O [Cur, Curcumin] | 4880 | 4600 | 332 | 6 | 171 | 9.53 | 10.8 | 5.6 |  |  |  | 
2 | Carbonic acid 17-(1,5-dimethyl-hexyl)-10,13-dimethyl-2,3,4,7,8,9,10,11,12,13,14,15,16,17-tetradecahydro-1H-cyclopenta[a]phenanthren-3-yl ester 4-[7-(4-hydroxy-3-methoxy-phenyl)-3,5-dioxo-hepta-1,6-dienyl]-2-methoxy-phenyl ester [CUD] |  |  |  |  |  |  |  |  | 60.24 ± 5.08 | 0.2258 | 8.6574 | 1.0410
